The source of these data is patent US9072712B2, “Synergistic antimicrobial preparations containing chlorite and hydrogen peroxide” (priority 1999, dated 2015).

Series [1] concerns S. haemolyticus keratitis in rabbits. In words: In-vivo clinical efficacy in infectious S. haemolyticus keratitis. As to the method: (§1) After 24 hours, all corneas were likewise infected, and the rabbits were divided randomly into three groups. The rabbits (five) of Group I then were treated with the chlorite-hydrogen peroxide formulation defined above as cleaning while wearing contact lenses (here termed “Bactericide”); the rabbits (five) of Group II were treated with commercially available 0.3% ofloxacin antibiotic ophthalmic solution; and the rabbits (two) of Group III were untreated to serve as a control. At 24 and 48 hours post infection, the rabbits underwent visual eye examination, photographic documentation and biomicroscopy. After 24 hours of treatment, three animals each from Groups I and II and one animal from Group III were sacrificed. The eyes were enucleated and an 8 mm disc of cornea was homogenized and plated onto growth media for microbial isolation and quantification. After 48 hours of treatment, the same procedure was followed for the remaining animals.

Series [2] has the same test system. In words: In-vivo antimicrobial efficacy in infectious S. haemolyticus keratitis (corneal CFU). As to the method:
as §1

For series [3], the system named is human eye. The following applies: hydrogen peroxide without sodium chlorite (0.01 wt. %); cited from earlier work.
Series [4] relates to antibiotic-resistant strain of staphylococcus haemolyticus. In words: In-vitro antimicrobial effect (log reduction). Format: cell-based.
Series [5] concerns normal human eyes. The following applies: in the presence of sodium chlorite (400 ppm).
Text: Two drops of each formulation were then placed in the cul-de-sac of two normal human eyes. Upon instillation of the drops, the subjects were instructed to close their eyelids.
Series [6] concerns antibiotic-resistant strain of pseudomonas aeruginosa. As to the kind of experiment: In-vitro antimicrobial effect (log reduction). It counts as cell-based.
Setting [7] is: 24 hours after infection (before treatment).

“Also recorded” adds a separate entry of the source.

Regarding `CC1COc2c(N3CCN(C)CC3)c(F)cc3c(=O)c(C(=O)O)cn1c23` (stereo not drawn) [0.3% Ofloxacin, ofloxacin], in series [1] (setting [7]), the corneal edema score entry is recorded as “corneal edema (+2)”, the hyperemia score entry is “hyperemia (+2)” and the inflammation score result is recorded as “inflammation(+2)”. For the same compound, in series [1] (24 hours after treatment), the corneal edema score result is given as “corneal edema (+2)”, the hyperemia score entry was “hyperemia (+2)” and the inflammation score result is recorded as “inflammation(+2)”. In series [1] (48 hours after treatment), the corneal edema score entry was “corneal edema (+1)”, the hyperemia score entry is given as “hyperemia (+1)” and the inflammation score entry is “inflammation(+1)”. For the same compound, in series [2] (24 hours post treatment), the “bacteria isolated from 8 mm disc of cornea, Average” value is on record as 13,000 CFU and the “bacteria isolated from 8 mm disc of cornea, individual animals” value is reported as “iii) 11,000 CFU; also recorded: i) 23,000 CFU; also recorded: ii) 5,000 CFU”. In series [2] (48 hours post treatment), the “bacteria isolated from 8 mm disc of cornea, Average” value is 5,100 CFU and the “bacteria isolated from 8 mm disc of cornea, individual animals” value is reported as “i) 5,000 CFU; also recorded: ii) 5,200 CFU”.
Regarding `OO` [H202 alone, hydrogen peroxide], the “upper limit of human ocular tolerability” value in series [3] is “about 100 ppm”. The “Log Reduction” value in series [4] (200 ppm, 1 hour) was 0.20; in series [4] (200 ppm, 2 hours), 0.23; in series [6] (200 ppm, 1 hour), 0.01; in series [6] (200 ppm, 2 hours) it was 0.54. Further, the “hydrogen peroxide levels very well tolerated by human eyes” value in series [5] was “up to 500 ppm”.
As to sodium chlorite [NaClO2 alone], the “Log Reduction” value in series [4] (400 ppm, 1 hour) stood at 0.11; in series [4] (400 ppm, 2 hours), 1.01; in series [6] (400 ppm, 1 hour), 0.351; in series [6] (400 ppm, 1 hour, listed as sodium chlorite) it was 0.35; in series [6] (400 ppm, 2 hours), 1.35.
